# Test system: strains of Enterobacteriaceae producing various carbapenemases (class A, D and B; 104 strains)
# Assay: Antibiotics potentiation by Compound 27 (MIC; meropenem, doripenem, ertapenem, cefepime)
# Format: cell-based
# Details: + 27 = with Compound 27 at fixed 4 μg/ml
compound,measurement,setting,value
COc1ccc2c(c1C(=O)O)OB(O)C(Sc1nnc(N)s1)C2 (centres unmarked) [C + 27],MIC,strain CF1012 Citrobacter freundii (KPC-2),X (MIC of less than 1 μg/mL)
same,MIC,strain CF1021 Citrobacter freundii (CMY-type; VIM-1),X (MIC of less than 1 μg/mL)
same,MIC,"strain CF1022 Citrobacter freundii (SHV-12(2be), TEM-OSBL(2b); IMP-8)",X (MIC of less than 1 μg/mL)
same,MIC,"strain CF1023 Citrobacter freundii (SHV-12(2be), TEM-OSBL(2b); CTX-M-3; CMY-34; NDM-1)",X (MIC of less than 1 μg/mL)
same,MIC,strain CL1080 Enterobacter cloacae (IMP-1),Y (MIC of 1 μg/mL to 10 μg/mL)
same,MIC,"strain EA1019 Enterobacter aerogenes (SHV-5, VIM-1)",Y (MIC of 1 μg/mL to 10 μg/mL)
same,MIC,strain EC1007 Escherichia coli (KPC-3),X (MIC of less than 1 μg/mL)
same,MIC,"strain EC1061 Escherichia coli (NDM-1, CMY-6)",X (MIC of less than 1 μg/mL)
same,MIC,"strain EC1062 Escherichia coli (OXA-48, CTX-M-15)",X (MIC of less than 1 μg/mL)
same,MIC,"strain EC1064 Escherichia coli (NDM-1, CMY-6, CTX-M-15)",Z (MIC of greater than 10 μg/mL)
same,MIC,strain EC1065 Escherichia coli (IMP-1),X (MIC of less than 1 μg/mL)
same,MIC,strain EC1068 Escherichia coli (VIM-1),Y (MIC of 1 μg/mL to 10 μg/mL)
same,MIC,strain EC1069 Escherichia coli (CTX-M-27; NDM-1),X (MIC of less than 1 μg/mL)
same,MIC,strain EC1070 Escherichia coli (TEM-OSBL(2b); CMY-42; NDM-5),X (MIC of less than 1 μg/mL)
same,MIC,strain EC1072 Escherichia coli (CTX-M-3; NDM-1),Y (MIC of 1 μg/mL to 10 μg/mL)
same,MIC,strain ECL1004 Enterobacter cloacae (NMC-A),X (MIC of less than 1 μg/mL)
same,MIC,"strain ECL1026 Enterobacter cloacae (KPC-2, TEM-1)",X (MIC of less than 1 μg/mL)
same,MIC,"strain ECL1036 Enterobacter cloacae (KPC-3, TEM-1)",X (MIC of less than 1 μg/mL)
same,MIC,strain ECL1045 Enterobacter cloacae (VIM-1),Y (MIC of 1 μg/mL to 10 μg/mL)
same,MIC,"strain ECL1055 Enterobacter cloacae (KPC-3, TEM)",X (MIC of less than 1 μg/mL)
same,MIC,"strain ECL1057 Enterobacter cloacae (NDM-1, TEM-1, CTX-M-15)",Z (MIC of greater than 10 μg/mL)
same,MIC,"strain ECL1058 Enterobacter cloacae (KPC-3, SHV-11, TEM-1)",X (MIC of less than 1 μg/mL)
same,MIC,"strain ECL1059 Enterobacter cloacae (KPC-3, SHV-12, TEM-1)",X (MIC of less than 1 μg/mL)
same,MIC,"strain ECL1061 Enterobacter cloacae (KPC-3, Hyper AmpC expression)",Y (MIC of 1 μg/mL to 10 μg/mL)
same,MIC,strain ECL1082 Enterobacter cloacae (VIM-1),Y (MIC of 1 μg/mL to 10 μg/mL)
same,MIC,strain ECL1084 Enterobacter cloacae (CTX-M-15; ACT-16; NDM-1),X (MIC of less than 1 μg/mL)
same,MIC,"strain ECL1085 Enterobacter cloacae (SHV-31(2be), TEM-1(2b); CTX-M-15; NDM-1)",X (MIC of less than 1 μg/mL)
same,MIC,"strain ECL1086 Enterobacter cloacae (VIM-31, OXA-48(c))",Y (MIC of 1 μg/mL to 10 μg/mL)
same,MIC,strain ECL1087 Enterobacter cloacae (VIM-1),Y (MIC of 1 μg/mL to 10 μg/mL)
same,MIC,strain ECL1088 Enterobacter cloacae (TEM-1(2b); CTX-M-14; ACT-type; VIM-1),Y (MIC of 1 μg/mL to 10 μg/mL)
same,MIC,strain ECL1089 Enterobacter cloacae (ACT-type; IMP-1),Z (MIC of greater than 10 μg/mL)
same,MIC,strain ECL1090 Enterobacter cloacae (TEM-1(2b); CTX-M-22; ACT-type; IMP-8),Y (MIC of 1 μg/mL to 10 μg/mL)
same,MIC,strain ECL1091 Enterobacter cloacae (VIM-1),Y (MIC of 1 μg/mL to 10 μg/mL)
same,MIC,strain ECL1092 Enterobacter cloacae (TEM-OSBL(2b); ACT-32; VIM-1),X (MIC of less than 1 μg/mL)
same,MIC,strain ECL1093 Enterobacter cloacae (TEM-OSBL(2b); ACT-32; VIM-1),X (MIC of less than 1 μg/mL)
same,MIC,strain ECL1094 Enterobacter cloacae (VIM-1),Y (MIC of 1 μg/mL to 10 μg/mL)
same,MIC,"strain ECL1096 Enterobacter cloacae (CMY-4, VIM-4, OXA-48(c))",X (MIC of less than 1 μg/mL)
same,MIC,"strain ECL1097 Enterobacter cloacae (SHV-31(2be), TEM-OSBL(2b); CTX-M-15; ACT-31; NDM-1)",X (MIC of less than 1 μg/mL)
same,MIC,strain ECL1098 Enterobacter cloacae (TEM-OSBL(2b); DHA-1; ACT-16; NDM-1),X (MIC of less than 1 μg/mL)
same,MIC,strain KP1001 Klebsiella pneumoniae (KPC TEM SHV),Y (MIC of 1 μg/mL to 10 μg/mL)
same,MIC,strain KP1002 Klebsiella pneumoniae (KPC TEM SHV),X (MIC of less than 1 μg/mL)
same,MIC,strain KP1003 Klebsiella pneumoniae (KPC TEM SHV),X (MIC of less than 1 μg/mL)
same,MIC,"strain KP1004 Klebsiella pneumoniae (KPC-2, TEM-1, SHV-11)",X (MIC of less than 1 μg/mL)
same,MIC,strain KP1008 Klebsiella pneumoniae (KPC-2),X (MIC of less than 1 μg/mL)
same,MIC,"strain KP1014 Klebsiella pneumoniae (VIM-1, TEM, SHV)",X (MIC of less than 1 μg/mL)
same,MIC,"strain KP1054 Klebsiella pneumoniae (VIM-1, SHV-11)",X (MIC of less than 1 μg/mL)
same,MIC,"strain KP1059 Klebsiella pneumoniae (VIM-1, SHV-11)",Y (MIC of 1 μg/mL to 10 μg/mL)
same,MIC,"strain KP1061 Klebsiella pneumoniae (KPC-3, SHV-11, TEM-1)",X (MIC of less than 1 μg/mL)
same,MIC,"strain KP1064 Klebsiella pneumoniae (KPC-2, SHV-11, TEM-1)",Y (MIC of 1 μg/mL to 10 μg/mL)
same,MIC,"strain KP1065 Klebsiella pneumoniae (VIM-1, SHV-11)",X (MIC of less than 1 μg/mL)
same,MIC,"strain KP1070 Klebsiella pneumoniae (KPC-2, SHV-11, TEM-1)",X (MIC of less than 1 μg/mL)
same,MIC,"strain KP1074 Klebsiella pneumoniae (KPC-3, SHV-11, TEM)",Z (MIC of greater than 10 μg/mL)
same,MIC,"strain KP1081 Klebsiella pneumoniae (NDM-1, TEM-1, SHV-11, CMY-6, CTX-M-15)",Y (MIC of 1 μg/mL to 10 μg/mL)
same,MIC,"strain KP1082 Klebsiella pneumoniae (KPC-2, SHV-1)",X (MIC of less than 1 μg/mL)
same,MIC,"strain KP1083 Klebsiella pneumoniae (KPC-3, SHV-1, TEM-1)",X (MIC of less than 1 μg/mL)
same,MIC,"strain KP1084 Klebsiella pneumoniae (KPC-3, SHV-11, TEM-1)",Y (MIC of 1 μg/mL to 10 μg/mL)
same,MIC,"strain KP1086 Klebsiella pneumoniae (OXA-48, CTX-M-15, TEM, SHV)",Z (MIC of greater than 10 μg/mL)
same,MIC,"strain KP1087 Klebsiella pneumoniae (KPC-2, CTX-M-15, SHV-11, TEM-1)",Y (MIC of 1 μg/mL to 10 μg/mL)
same,MIC,"strain KP1088 Klebsiella pneumoniae (KPC-3, SHV-11, TEM-1)",X (MIC of less than 1 μg/mL)
same,MIC,"strain KP1089 Klebsiella pneumonias (OXA-181, CTX-M-15, TEM, SHV)",Y (MIC of 1 μg/mL to 10 μg/mL)
same,MIC,strain KP1095 Klebsiella pneumoniae (KPC-2 TEM-1 SHV-1),X (MIC of less than 1 μg/mL)
same,MIC,strain KP1096 Klebsiella pneumoniae (KPC-2 TEM-181 SHV-11),X (MIC of less than 1 μg/mL)
same,MIC,strain KP1097 Klebsiella pneumonias (IMP-1),X (MIC of less than 1 μg/mL)
same,MIC,strain KP1098 Klebsiella pneumoniae (IMP-26),Y (MIC of 1 μg/mL to 10 μg/mL)
same,MIC,strain KP1104 Klebsiella pneumoniae (KPC TEM),X (MIC of less than 1 μg/mL)
same,MIC,strain KP1105 Klebsiella pneumoniae (KPC TEM SHV),X (MIC of less than 1 μg/mL)
same,MIC,strain KP1159 Klebsiella pneumoniae (SHV-1(2b); CTX-M-15; IMP-4),X (MIC of less than 1 μg/mL)
same,MIC,strain KP1160 Klebsiella pneumoniae (SHV-28(2be); CTX-M-15; IMP-26),X (MIC of less than 1 μg/mL)
same,MIC,strain KP1161 Klebsiella pneumoniae (NDM-1),X (MIC of less than 1 μg/mL)
same,MIC,strain KP1164 Klebsiella pneumoniae (SHV-12(2be); VIM-1),X (MIC of less than 1 μg/mL)
same,MIC,strain KP1165 Klebsiella pneumoniae (SHV-11(2b); CTX-M-15; VIM-27),Z (MIC of greater than 10 μg/mL)
same,MIC,strain KP1166 Klebsiella pneumoniae (SHV-5(2be); VIM-26),Z (MIC of greater than 10 μg/mL)
same,MIC,strain KP1167 Klebsiella pneumoniae (SHV-12(2be); VIM-1),X (MIC of less than 1 μg/mL)
same,MIC,strain KP1169 Klebsiella pneumoniae (SHV-11(2b); VIM-1),X (MIC of less than 1 μg/mL)
same,MIC,strain KP1170 Klebsiella pneumoniae (SHV-11(2b); CTX-M-15; NDM-1),X (MIC of less than 1 μg/mL)
same,MIC,strain KP1172 Klebsiella pneumoniae (SHV-31(2be); DHA-1; VIM-1),X (MIC of less than 1 μg/mL)
same,MIC,strain KP1173 Klebsiella pneumoniae (TEM-33(2br); CTX-M-15; IMP-1),X (MIC of less than 1 μg/mL)
same,MIC,strain KP1174 Klebsiella pneumoniae (CTX-M-14; IMP-1),X (MIC of less than 1 μg/mL)
same,MIC,strain KP1175 Klebsiella pneumoniae (SHV-OSBL(2b); VIM-1),X (MIC of less than 1 μg/mL)
same,MIC,"strain KP1177 Klebsiella pneumoniae (SHV-OSBL(2b), TEM-OSBL(2b); CTX-M-15; NDM-1)",X (MIC of less than 1 μg/mL)
same,MIC,strain KP1178 Klebsiella pneumoniae (SHV-OSBL(2b;) TEM-OSBL(2b); CTX-M-15; NDM-1),X (MIC of less than 1 μg/mL)
same,MIC,"strain KP1179 Klebsiella pneumoniae (SHV-12(2be), TEM-OSBL(2b); CTX-M-15; NDM-7)",X (MIC of less than 1 μg/mL)
same,MIC,"strain KP1180 Klebsiella pneumoniae (SHV-OSBL(2b), TEM-OSBL(2b); CTX-M-15; DHA-1; IMP-26)",X (MIC of less than 1 μg/mL)
same,MIC,strain KP1181 Klebsiella pneumoniae (SHV-OSBL(2b); CTX-M-15; IMP-26),X (MIC of less than 1 μg/mL)
same,MIC,"strain KP1183 Klebsiella pneumoniae (SHV-OSBL(2b), TEM-OSBL(2b); CTX-M-15; NDM-1)",X (MIC of less than 1 μg/mL)
same,MIC,strain KP1184 Klebsiella pneumoniae (SHV-OSBL(2b); IMP-1),X (MIC of less than 1 μg/mL)
same,MIC,"strain KP1185 Klebsiella pneumoniae (SHV-OSBL(2b), TEM-OSBL(2b); IMP-4)",Y (MIC of 1 μg/mL to 10 μg/mL)
same,MIC,strain KP1186 Klebsiella pneumoniae (CTX-M-15; NDM-1),Y (MIC of 1 μg/mL to 10 μg/mL)
same,MIC,"strain KP1187 Klebsiella pneumoniae (SHV-55(2be), TEM-OSBL(2b); CTX-M-15; NDM-1)",X (MIC of less than 1 μg/mL)
same,MIC,strain KP1188 Klebsiella pneumoniae (SHV-OSBL(2b); CTX-M-15; NDM-1),Y (MIC of 1 μg/mL to 10 μg/mL)
same,MIC,strain KP1189 Klebsiella pneumoniae (TEM-OSBL(2b); CTX-M-15; CTX-M-27; NDM-1),X (MIC of less than 1 μg/mL)
same,MIC,strain KPM1123 Klebsiella pneumoniae (KPC-2 TEM SHV),X (MIC of less than 1 μg/mL)
same,MIC,strain KPM1202 Klebsiella pneumoniae (KPC SHV TEM),X (MIC of less than 1 μg/mL)
same,MIC,strain KPM1203 Klebsiella pneumoniae (KPC SHV TEM),X (MIC of less than 1 μg/mL)
same,MIC,strain KPM1344 Klebsiella pneumoniae (VIM-1),X (MIC of less than 1 μg/mL)
same,MIC,strain KPM1345 Klebsiella pneumoniae (VIM-1 SHV),X (MIC of less than 1 μg/mL)
same,MIC,strain KPM1347 Klebsiella pneumoniae (NDM-1 SHV CTX-M-15),X (MIC of less than 1 μg/mL)
same,MIC,"strain KX1017 Klebsiella oxytoca (KPC-2, OXA-2, SHV-30)",X (MIC of less than 1 μg/mL)
same,MIC,"strain KX1018 Klebsiella oxytoca (KPC-2, SHV-40, OXY-1)",X (MIC of less than 1 μg/mL)
same,MIC,"strain KX1019 Klebsiella oxytoca (KPC-2, OXA-2)",X (MIC of less than 1 μg/mL)
same,MIC,strain PM1024 Proteus mirabilis (TEM-1(2b); CMY-16; VIM-1),X (MIC of less than 1 μg/mL)
same,MIC,strain PM1026 Proteus mirabilis (DHA-1; IMP-26),X (MIC of less than 1 μg/mL)
same,MIC,strain PM1027 Proteus mirabilis (VIM-5),X (MIC of less than 1 μg/mL)
same,MIC,strain SM1023 Serratia marcescens (VIM-4),Y (MIC of 1 μg/mL to 10 μg/mL)

# — patent publication US10206937B2, “Boronic acid derivatives and therapeutic uses thereof” (Qpex Biopharma, Inc., priority 2014, dated 2019)
